Data as given in US20120010178A1, “METHODS AND COMPOUNDS FOR TREATMENT OF NEURODEGENERATIVE DISORDERS” (PRESIDENT AND FELLOWS OF HARVARD COLLEGE, priority 2008, published 2012).
“Also recorded” adds a separate entry of the source.

Experiments:
SMN [1] = experiment: SMN immunofluorescence quantification (cytoplasm, nucleus, GEMs) in fibroblasts from SMA patients; type: cell-based, human; details: for levels of cytoplasmic and nuclear SMN (in words): substance alone
In short: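 SMN immunostained and imaged by automated confocal microscopy; per-cell cytoplasmic and nuclear SMN intensity and GEM number and intensity quantified. PFA fixation used for screening.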

SMN [2] = experiment: SMN levels in mouse (ES-cell derived) motor neurons; type: cell-based; details: for SMN levels in motor neurons (in words): mouse motor neurons
Description: Mouse HB9-GFP derived SMN deficient motor neuron cells were incubated for 2 days with compounds from libraries and collections.
Motor neurons were produced from mouse ES-cells expressing cherry fluorescent protein (CFP) under the control of the motor neuron-selective Hb9 promoter, as previously described (Wichterle et al., 2002).
GFP expressing motor neurons were derived from mouse ES cells as described below. After growing for approximately 1 week, motor neurons were treated with allsterpaullone. Two days after treatment with allsterpaullone, cells were fixed and stained with SMN antibody or GFP antibody.
mES cells were differentiated into motor neurons according to methods adapted from Wichterle et. al., Cell (2002), 110:385-397. Briefly, mES cells were grown to 70-80% confluence in 10-cm plates (Falcon) in ES cell medium. To form embryoid bodies, cells were washed once with PBS to eliminate mES medium and then incubated with 1 ml of 0.25% trypsin (GIBCO) for 5-10 min at 21-25° C. (RT). Cells were then resuspended in 10 ml of DM1 medium (DMEM-F12, GIBCO), 10% knockout serum (GIBCO), penicillin, streptomycin, glutamine (GIBCO) and 2-mercaptoethanol (GIBCO), counted and plated at a concentration of 200,000 cells per ml in Petri dishes (Falcon). Two days later, embryoid bodies were collected and resuspended into new Petri dishes containing DM1 medium supplemented with RAc (100 nM; stock 1 mM in DMSO, Sigma) and HhAg (100 nM). […] treatment was repeated with the same concentration of RAc (100 nM) and high concentration of HhAg (1 μM). On day 6, the embryoid bodies were collected in a 15-ml Falcon tube, and incubated in Earle's balanced salt solution with 20 units of Papain and 1,000 units of DNase I (Worthington Biochemical) for 10 min at 37° C. The mixture was then triturated with a 10-ml pipette and centrifugated for 5 min at 800 rpm. The resulting cell pellet was washed with PBS and resuspended in F12 medium (F12 medium, GIBCO) with 2% fetal bovine serum (GIBCO), B-27 supplement (GIBCO), (GDNF and BDNF, 20 ng ml^−1, R&D Systems). The cells were counted and plated on poly-ornithine coated 96-well plates (VWR).

[3] = molecular target: T1, GSK3b (Ser-9 phosphorylation) (Homo sapiens, UniProt P49841); experiment: p-GSK(Ser9) phosphorylation in patient fibroblasts (western blot / immunofluorescence); type: cell-based; details: patient fibroblasts
T1 construct: endogenous in cells; host or cells: SMA patient fibroblasts (GM09677), starved in 0.5% FBS before treatment
T1 sequence (P49841 whole entry): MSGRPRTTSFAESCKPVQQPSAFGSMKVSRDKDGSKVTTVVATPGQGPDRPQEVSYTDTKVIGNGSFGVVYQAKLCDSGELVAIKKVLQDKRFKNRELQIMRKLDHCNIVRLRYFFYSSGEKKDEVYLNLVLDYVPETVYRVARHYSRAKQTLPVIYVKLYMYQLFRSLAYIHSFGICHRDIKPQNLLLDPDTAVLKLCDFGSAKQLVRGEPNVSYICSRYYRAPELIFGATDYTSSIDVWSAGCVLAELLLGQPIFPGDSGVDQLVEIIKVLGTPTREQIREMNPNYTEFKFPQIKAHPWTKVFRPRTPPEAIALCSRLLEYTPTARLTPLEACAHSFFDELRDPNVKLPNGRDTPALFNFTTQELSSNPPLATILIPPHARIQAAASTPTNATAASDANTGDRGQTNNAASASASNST
Description: Compounds were stored at appropriate temperature and dissolved accordingly to the manufacturers (Tocris, Enzo, EMD and Sigma-Aldrich) in DMSO (Sigma-Aldrich), unless stated otherwise (Monensin Na in EtOH, DMPQ in water). Growth factors and PDGF neutralizing antibodies (R&D Systems) were reconstituted with buffers recommended by the supplier. For generation of the dose curves, 1×10^3 fibroblasts were plated on to 96-well Greiner Senso plates (VWR) and treated with compounds on the second day then fixed and stained at the indicated time points. For GSK inhibitors and performing p-GSK3b(Ser9) detection, two days after plating growth media containing 5% FBS was replaced to the media with FBS reduced down to 0.5%, to starve cells for 72 hours. Addition of the GSK inhibitors was done in 5% FBS enriched media. As previously described, starvation increases levels of constitutively activate GSK3b kinase, allowing to achieve a more dramatic inhibitory effect when GSK inhibitors are added together with growth factors that are also known to inhibit GSK by Ser-9 phosphorylation. […] For all compounds and growth factors control wells received solvent in amount equivalent to the highest concentration of the compound in a dose curve. For PDGF inhibitory studies, cells were pre-treated with kinase inhibitors for 2 hours and PDGF was added with a fresh kinase inhibitor solution and incubated for an additional 3 days.

Compound	levels of cytoplasmic and nuclear SMN (in words) (SMN [1]; SMA patient fibroblasts)	levels of cytoplasmic and nuclear SMN (in words) (SMN [1]; SMA patient fibroblasts, listed as alsterpaullone)	effect on SMN level (SMN [1]; fed cells (10% serum, not starved))	effect on SMN level (SMN [1]; pre-starved cells that received fresh media with 10% serum along with compound) [fold]	effect on SMN level (SMN [1]; pre/post-starved cells (0.5% serum)) [fold]	Gem intensity in neurons (in words) (SMN [2]; ES-cell derived neurons)	SMN levels in motor neurons (in words) (SMN [2])	SMN levels in motor neurons (in words) (SMN [2]; listed as allsterpaullone)	p-GSK-Ser9 phosphorylation (in words) [3]	fold increase in cytoplasmic SMN (SMN [1]; SMA patient fibroblasts) [fold]	fold increase in nuclear SMN (SMN [1]; SMA patient fibroblasts) [fold]	levels of cytoplasmic and nuclear SMN (in words) (SMN [1]; SMA patient fibroblasts, listed as platelet derived PDGF)	Avg. SMN fold increase (SMN [1]; human PDGF isoforms, SMA patient fibroblasts)
O=C1Cc2c([nH]c3ccc([N+](=O)[O-])cc23)-c2ccccc2N1 [Alsterpaullone]	increase SMN levels; also recorded: Most active compounds	able to elevate SMN in patient fibroblasts	weak effect	1.9	1.6	increases Gem intensity in neurons; also recorded: main increase was observed in Gem Intensity parameter	increases level of SMN in neurons; also recorded: able to elevate Smn	Increased SMN levels	increase in a dose dependent manner	–	–	–	–
PDGF	increase in SMN levels	–	–	–	–	–	no effect on elevating SMN	–	phosphorylates GSK313 in a dose-dependent manner	2.3	1.95	strongest activator	2-2.3 fold
